These results are taken from US12637478B2, “Compound, preparation method thereof, and antibiotic composition comprising same” (priority 2020, dated 2026).

≈ marks a conversion by molar mass, not a printed value. Like-named read-outs stand apart in the source and are kept apart here.

The subject of one experiment is M. avium. The experiment in a line: MIC by resazurin (REMA) assay against Mycobacterium, test strain 21. Type of experiment: cell-based. The conditions noted are these: test strain 21, M. avium, resazurin, read-out: MIC. The protocol: (§1) In order to test the antibacterial activity, the medium of Mycobacterium cultured to late log phase was diluted so as to be 4.0×10^5 cells/well in Middlebrook 7H10 agar medium (Difco) supplemented with 10% oleic acid, albumin, dextrose, catalase (OADC, Becton Dickinson) and 0.05% Tween 80 (Sigma Aldrich) and was dispensed into a 96-well plate. The compounds were treated so that DMSO was 1%, and after 3 days, a 0.025% resazurin (REMA) solution was dispensed, and the growth of the bacteria was confirmed after culturing. The MIC value was measured for the antibacterial activity through resazurin (excitation 530 nm, emission 590 nm).

For another experiment, the system named is C. difficile 161. The experiment in a line: MIC by agar dilution against Clostridioides difficile, test strain 16. Type of experiment: cell-based. The conditions noted are these: test strain 16, C. difficile 161, anaerobic, agar dilution, read-out: MIC.
The next experiment has as its system E. faecalis^LinR. The experiment in a line: MIC by broth microdilution (aerobic pathogens), test strain 9. Type of experiment: cell-based, Linezolid resistant Enterococcus faecalis. Particulars: Enterococcus faecalis; test strain 9, E. faecalis^LinR (linezolid resistant); read-out: MIC. In outline:
(§2)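 Broth microdilution per CLSI M7-A5 standards was used. MIC was taken as the lowest antibiotic concentration inhibiting bacterial growth by 90% relative to the untreated growth control.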
(In general: Dilution methods test growth across graded concentrations, often in twofold steps.)

The subject of a further experiment is E. faecalis^VanA. As to the kind of experiment: MIC by broth microdilution (aerobic pathogens), test strain 8. Type of experiment: cell-based, Vancomycin resistant Enterococcus faecalis. Particulars: Enterococcus faecalis; test strain 8, E. faecalis^VanA (vancomycin resistant); read-out: MIC. In outline: as §2
The subject of a further experiment is C. difficile 174. As to the kind of experiment: MIC by agar dilution against Clostridioides difficile, test strain 18. The experiment is classed as cell-based. Particulars: test strain 18, C. difficile 174, anaerobic, agar dilution, read-out: MIC. Background: In agar dilution the substance is mixed into plates at graded concentrations.
The next experiment concerns C. difficile 173. The experiment in a line: MIC by agar dilution against Clostridioides difficile, test strain 17. The experiment is classed as cell-based. Particulars: test strain 17, C. difficile 173, anaerobic, agar dilution, read-out: MIC.
The subject of the next experiment is E. faecalis. The experiment in a line: MIC by broth microdilution (aerobic pathogens), test strain 7. The experiment is classed as cell-based. Particulars: Enterococcus faecalis; test strain 7, E. faecalis; read-out: MIC. Summed up:
as §2

A further experiment concerns S. epidermis. As to the kind of experiment: MIC by broth microdilution (aerobic pathogens), test strain 5. Type of experiment: cell-based. Particulars: Staphylococcus epidermidis. Summed up: as §2
The subject of a further experiment is C. difficile 9689. As to the kind of experiment: MIC by agar dilution against Clostridioides difficile, test strain 13. The experiment is classed as cell-based. The conditions noted are these: test strain 13, C. difficile 9689, anaerobic, agar dilution, read-out: MIC.
The subject of experiment [1] is S. aureus^MS. The experiment in a line: MIC by broth microdilution (aerobic pathogens), test strain 1. Type of experiment: cell-based. Particulars: Staphylococcus aureus; test strain 1, S. aureus^MS; read-out: MIC. In outline: as §2
For the next experiment, the system named is C. difficile 181. As to the kind of experiment: MIC by agar dilution against Clostridioides difficile, test strain 19. Type of experiment: cell-based. The conditions noted are these: test strain 19, C. difficile 181, anaerobic, agar dilution, read-out: MIC.
Another experiment relates to E. faecium. The experiment in a line: MIC by broth microdilution (aerobic pathogens), test strain 10. Type of experiment: cell-based. The conditions noted are these: Enterococcus faecium; test strain 10, E. faecium; read-out: MIC. Summed up:
as §2

In experiment [2] the test system is S. aureus^MS. As to the kind of experiment: MIC by broth microdilution (aerobic pathogens), test strain 2. Particulars: Staphylococcus aureus; test strain 2, S. aureus^MS; read-out: MIC. Type of experiment: cell-based. In outline:
as §2

A further experiment relates to S. epidermis^MR. As to the kind of experiment: MIC by broth microdilution (aerobic pathogens), test strain 6. Type of experiment: cell-based, Methicillin resistant Staphylococcus epidermidis. Particulars: Staphylococcus epidermidis; test strain 6, S. epidermis^MR (methicillin resistant); read-out: MIC. In outline: as §2
The subject of another experiment is C. difficile 152. As to the kind of experiment: MIC by agar dilution against Clostridioides difficile, test strain 14. The experiment is classed as cell-based. Particulars: test strain 14, C. difficile 152, anaerobic, agar dilution, read-out: MIC.
Another experiment has as its system E. faecium^LinR. As to the kind of experiment: MIC by broth microdilution (aerobic pathogens), test strain 12. Type of experiment: cell-based, Linezolid resistant Enterococcus faecium. The conditions noted are these: Enterococcus faecium; test strain 12, E. faecium^LinR (linezolid resistant); read-out: MIC. Summed up: as §2
The subject of a further experiment is S. aureus^VR. As to the kind of experiment: MIC by broth microdilution (aerobic pathogens), test strain 4. Type of experiment: cell-based, Vancomycin resistant Staphylococcus aureus. Particulars: Staphylococcus aureus; test strain 4, S. aureus^VR (vancomycin resistant); read-out: MIC. The protocol: (§3) The antibacterial activity of the compounds of Examples 1 to 48 of the present invention against aerobic pathogens were evaluated by measuring the minimum concentration of the antibiotic capable of inhibiting bacterial growth by 90% compared to the growth of the non-drug treated control group. MIC was measured by the broth microdilution method based on CLSI standards [Reference: Clinical and Laboratory Standards Institute Document. (2000) Methods for Dilution Antimicrobial Susceptibility Test for Bacteria that Grow Aerobically-Fifth Edition: M7-A5. CLSI, Villanova, PA].
(§4) All 13 strains such as methicillin susceptible Staphylococcus aureus (MSSA), methicillin resistant Staphylococcus aureus (MRSA), Vancomycin resistant Staphylococcus aureus (VRSA), Staphylococcus epidermidis, methicillin resistant Staphylococcus epidermidis, Enterococcus faecalis, Vancomycin resistant Enterococcus faecalis, Enterococcus faecium, Vancomycin resistant Enterococcus faecium were used.

The test system of another experiment is C. difficile 159. As to the kind of experiment: MIC by agar dilution against Clostridioides difficile, test strain 15. The experiment is classed as cell-based. The conditions noted are these: test strain 15, C. difficile 159, anaerobic, agar dilution, read-out: MIC.
The subject of another experiment is S. aureus^MR. The experiment in a line: MIC by broth microdilution (aerobic pathogens), test strain 3. The experiment is classed as cell-based, Methicillin resistant Staphylococcus aureus. The conditions noted are these: Staphylococcus aureus; test strain 3, S. aureus^MR (methicillin resistant); read-out: MIC. The protocol: as §3, §4
The next experiment has as its system M. abscessus. As to the kind of experiment: MIC by resazurin (REMA) assay against Mycobacterium, test strain 23. The conditions noted are these: Mycobacteroides abscessus; test strain 23, M. abscessus, resazurin; read-out: MIC. The experiment is classed as cell-based. The protocol: as §1
Another experiment has as its system E. faecium^VRE. As to the kind of experiment: MIC by broth microdilution (aerobic pathogens), test strain 11. The experiment is classed as cell-based, Vancomycin resistant Enterococcus faecium. The conditions noted are these: Enterococcus faecium; test strain 11, E. faecium^VRE (vancomycin resistant); read-out: MIC. The protocol:
as §3, §4

The subject of the next experiment is M. intracelluare. The experiment in a line: MIC by resazurin (REMA) assay against Mycobacterium, test strain 22. The experiment is classed as cell-based. Particulars: Mycobacterium intracellulare; test strain 22, M. intracelluare, resazurin; read-out: MIC. The protocol:
as §1
On the technique in general: The colour change of resazurin is a common sign of viable cells or microbes.

Where [3] appears, read: test strain 5, S. epidermis, read-out: MIC.

As a reminder, the MIC is the least concentration at which growth counts as inhibited.

For `C/C=C1\NC(=O)[C@H]([C@@H](C)O)NC(=O)c2csc(n2)-c2ccc(-c3nc(-c4nc(C(=O)NC5(C(=O)NCCCN6CCN(C(C)C)CC6)CC5)cs4)cs3)nc2-c2csc(n2)[C@H]([C@@H](C)O)NC(=O)c2csc(n2)[C@H](C(C)C)NC(=O)c2csc1n2` [Compound 12], the MIC came to 0.135 µg/mL (≈ 0.108 µM) with M. avium; 0.5 µg/mL (≈ 0.399 µM) in the experiment on C. difficile 161; 1 µg/mL (≈ 0.797 µM) in the experiment on E. faecalis^LinR; 1 µg/mL (≈ 0.797 µM) in the experiment with E. faecalis^VanA; 0.125 µg/mL (≈ 0.0996 µM) in the experiment on C. difficile 174; 1 µg/mL (≈ 0.797 µM) with C. difficile 173. Also, the MIC with E. faecalis came out at 1 µg/mL (≈ 0.797 µM); with S. epidermis (setting [3]), 0.5 µg/mL (≈ 0.399 µM); in the experiment with C. difficile 9689 it was 0.5 µg/mL (≈ 0.399 µM); in the experiment with S. aureus^MS [1], 1 µg/mL (≈ 0.797 µM); with C. difficile 181 it was 0.125 µg/mL (≈ 0.0996 µM); with E. faecium it was 1 µg/mL (≈ 0.797 µM). In addition, the minimum inhibitory concentration (MIC) with S. aureus^MS [2], in the experiment on S. epidermis^MR and in the experiment with C. difficile 152 was 1 µg/mL (≈ 0.797 µM) throughout.

Regarding `C/C=C1\NC(=O)[C@H]([C@@H](C)O)NC(=O)c2csc(n2)-c2ccc(-c3nc(-c4nc(C(=O)NC5(C(=O)NCCCN6C(=O)CNC6=O)CC5)cs4)cs3)nc2-c2csc(n2)[C@H]([C@@H](C)O)NC(=O)c2csc(n2)[C@H](C(C)C)NC(=O)c2csc1n2` [Compound 9], the minimal inhibitory concentration (MIC) is 0.5 µg/mL (≈ 0.408 µM) with E. faecium^LinR; 0.5 µg/mL (≈ 0.408 µM) in the experiment with C. difficile 161; 0.5 µg/mL (≈ 0.408 µM) in the experiment with E. faecalis^LinR; 0.5 µg/mL (≈ 0.408 µM) with E. faecalis^VanA; 0.06 µg/mL (≈ 0.0489 µM) in the experiment on C. difficile 174; 0.06 µg/mL (≈ 0.0489 µM) with C. difficile 173. The minimal inhibitory concentration (MIC) is 0.25 µg/mL (≈ 0.204 µM) with E. faecalis; 1 µg/mL (≈ 0.815 µM) in the experiment with S. aureus^VR; 0.125 µg/mL (≈ 0.102 µM) against S. epidermis; 0.5 µg/mL (≈ 0.408 µM) in the experiment with C. difficile 9689; 0.25 µg/mL (≈ 0.204 µM) with S. aureus^MS [1]; 0.5 µg/mL (≈ 0.408 µM) in the experiment on C. difficile 159. Further, the MIC is 0.25 µg/mL (≈ 0.204 µM) with C. difficile 181; 1 µg/mL (≈ 0.815 µM) in the experiment with S. aureus^MR; 0.5 µg/mL (≈ 0.408 µM) in the experiment with E. faecium; 0.37 µg/mL (≈ 0.302 µM) in the experiment on M. abscessus; 1 µg/mL (≈ 0.815 µM) in the experiment on E. faecium^VRE; 0.25 µg/mL (≈ 0.204 µM) in the experiment with S. aureus^MS [2]. Also, the values for the minimum inhibitory concentration (MIC) with S. epidermis^MR and with C. difficile 152 were 0.25 µg/mL (≈ 0.204 µM) and 0.06 µg/mL (≈ 0.0489 µM), respectively.

Take `C/C=C1\NC(=O)[C@H]([C@@H](C)O)NC(=O)c2csc(n2)-c2ccc(-c3nc(-c4nc(C(=O)NC5(C(=O)NCCN6CCN(S(N)(=O)=O)CC6)CC5)cs4)cs3)nc2-c2csc(n2)[C@H]([C@@H](C)O)NC(=O)c2csc(n2)[C@H](C(C)C)NC(=O)c2csc1n2` [Compound 30]: the minimum inhibitory concentration (MIC) in the experiment on M. avium was determined as 0.089 µg/mL (≈ 0.0697 µM); in the experiment on E. faecalis^LinR, 0.5 µg/mL (≈ 0.391 µM); with E. faecalis, 1 µg/mL (≈ 0.783 µM); with S. epidermis (setting [3]) it was 0.25 µg/mL (≈ 0.196 µM); with S. aureus^MS [1] it was 0.5 µg/mL (≈ 0.391 µM); in the experiment on M. intracelluare, 0.024 µg/mL (≈ 0.0188 µM). For the same molecule, the results for the minimal inhibitory concentration (MIC) with M. abscessus, in the experiment on S. aureus^MS [2] and in the experiment on S. epidermis^MR were 0.559 µg/mL (≈ 0.438 µM), 1 µg/mL (≈ 0.783 µM) and 1 µg/mL (≈ 0.783 µM), respectively.

For the molecule `CC[C@H]1OC(=O)[C@H](C)[C@@H](O[C@H]2C[C@@](C)(OC)[C@@H](O)[C@H](C)O2)[C@H](C)[C@@H](O[C@@H]2O[C@H](C)C[C@H](N(C)C)[C@H]2O)[C@](C)(OC)C[C@@H](C)C(=O)[C@H](C)[C@@H](O)[C@]1(C)O` [Cla, Clarithromycin, reference compound], the figures for the minimal inhibitory concentration (MIC) with M. avium, in the experiment on M. intracelluare and in the experiment with M. abscessus were 0.205 µg/mL (≈ 0.274 µM), 0.143 µg/mL (≈ 0.191 µM) and 1.28 µg/mL (≈ 1.71 µM), respectively.

Turning to `C/C=C1\NC(=O)[C@H]([C@@H](C)O)NC(=O)c2csc(n2)-c2ccc(-c3nc(-c4nc(C(=O)NC5(C(=O)NCCN6CCN(CCO)CC6)CC5)cs4)cs3)nc2-c2csc(n2)[C@H]([C@@H](C)O)NC(=O)c2csc(n2)[C@H](C(C)C)NC(=O)c2csc1n2` [Compound 32], the minimum inhibitory concentration (MIC) is 0.153 µg/mL (≈ 0.123 µM) in the experiment on M. avium; 0.5 µg/mL (≈ 0.402 µM) in the experiment with S. aureus^MS [1]; 0.116 µg/mL (≈ 0.0934 µM) with M. intracelluare; 0.153 µg/mL (≈ 0.123 µM) in the experiment on M. abscessus; 0.5 µg/mL (≈ 0.402 µM) in the experiment on S. aureus^MS [2].
